In this experiment the test system is tail skin of SKH2 mice. The experiment is described as follows: Propigmenting activity by topical application on the tail of SKH2 mice (clinical pigmentation score, luminance by colorimeter). The note with it: 5 days per week for 57 days, 0.01% travoprost, MC1R agonist A at 7%, B at 8%, compared with carrier group (combinations also with 0.01% travoprost alone). It counts as in vivo. The text has this: In mice, melanocytes are not present in the epidermis of the areas covered with hair and are mainly present in the hair follicles. The tail skin of SKH2 mice is pigmented, which is of particular interest for evaluating the effect of topical agents on skin pigmentation. The pigmentation modifications induced by these topical compounds can be quantified by various means, for instance the clinical score of the pigmentation and the measurement of the tail color using a colorimeter. The evaluation of the propigmenting activity of 0.01% travoprost alone or in combination with MC1R receptor agonists: compound A at 7% or compound B at 8%, is carried out by topical application on the tail of SKH2 mice for 57 days. The treatment is carried out 5 days per week for 57 days. 20 μl of the test product diluted in the carrier 145 are applied to the tail. In the case of the combinations, 20 μl of the MC1R agonist solution are applied after the treatment with 20 μl of the 0.01% travoprost solution. The clinical score of the animals is recorded once a week before irradiation; the pigmentation is evaluated by virtue of a score on a scale of 0 to 4. […]

As for `CC(C)OC(=O)CCC/C=C\C[C@@H]1[C@@H](/C=C/[C@@H](O)COc2cccc(C(F)(F)F)c2)[C@H](O)C[C@@H]1O` [travoprost], the “clinical score for pigmentation (natural pigmentation of the tail skin)” value is given as “moderately increases the natural pigmentation of the tail skin as early as day 36”.

Values taken from patent US9364455B2, “Combination of a prostaglandin receptor agonist and an MC1R receptor agonist for the treatment and/or prevention of pigmentation disorders” (GALDERMA RESEARCH & DEVELOPMENT, priority 2011, dated 2016).
